Measured values from ChEMBL document CHEMBL1212812, “Multi-target spectral moment QSAR versus ANN for antiparasitic drugs against different parasite species” (Bioorg Med Chem, 2010).

Tested on: Leishmania infantum
Test: Antimicrobial activity against Leishmania infantum
Format: functional, organism-based

Point of comparison: `COc1ccc(C(=O)OCc2ccc3nc4ccc(OC)cc4c(N)c3c2)cc1`, IC50 2 µM. Against it:
- CCCC(=O)OCc1ccc2nc3ccc(OC)cc3c(Cl)c2c1 — 1.5-fold higher, 3 µM
- COc1ccc2nc3ccc(COC(=O)CC(C)C)cc3c(N)c2c1 — the same, 2 µM
- COc1ccc2nc3ccc(COC(=O)c4ccc(Cl)cc4)cc3c(N)c2c1 — 1.5-fold higher, 3 µM
- COc1ccc2nc3ccc(COC(=O)c4ccc(Cl)cc4)cc3c(Cl)c2c1 — 78-fold higher, 156 µM
- COc1ccc2nc3ccc(N(CCCCCCCCN(c4ccc5nc6ccc(OC)cc6c(N)c5c4)c4ccc5nc6ccc(OC)cc6c(N)c5c4)c4ccc5nc6ccc(OC)cc6c(N)c5c4)cc3c(N)c2c1 — 2-fold lower, 1 µM
- COC(=O)OCc1ccc2nc3ccc(OC)cc3c(Cl)c2c1 — 1.5-fold higher, 3 µM
- COc1ccc2nc3ccc(N(CCCCCCN(c4ccc5nc6ccc(OC)cc6c(N)c5c4)c4ccc5nc6ccc(OC)cc6c(N)c5c4)c4ccc5nc6ccc(OC)cc6c(N)c5c4)cc3c(N)c2c1 — 3.5-fold higher, 7 µM
- COc1ccc2nc3ccc(COC(=O)c4ccccc4)cc3c(Cl)c2c1 — 68-fold higher, 137 µM
- COc1ccc2nc3ccc(NCCCCCCNc4ccc5nc6ccc(OC)cc6c(N)c5c4)cc3c(N)c2c1 — 2-fold lower, 1 µM
- COc1ccc2nc3ccc(NCCCCCCNc4ccc5nc6ccc(OC)cc6c(Cl)c5c4)cc3c(Cl)c2c1 — 1.5-fold higher, 3 µM
- COc1ccc2nc3ccc(N(CCCCCCN(c4ccc5nc6ccc(OC)cc6c(Cl)c5c4)c4ccc5nc6ccc(OC)cc6c(Cl)c5c4)c4ccc5nc6ccc(OC)cc6c(Cl)c5c4)cc3c(Cl)c2c1 — 34-fold higher, 68 µM
- COc1ccc(C(=O)OCc2ccc3nc4ccc(OC)cc4c(Cl)c3c2)cc1 — 62-fold higher, 125 µM
- COc1ccc2nc3ccc(N(CCCCCN(c4ccc5nc6ccc(OC)cc6c(Cl)c5c4)c4ccc5nc6ccc(OC)cc6c(Cl)c5c4)c4ccc5nc6ccc(OC)cc6c(Cl)c5c4)cc3c(Cl)c2c1 — the same, 2 µM
- COc1ccc2nc3ccc(C)cc3c(Cl)c2c1 — 5-fold higher, 10 µM
- COc1ccc2nc3ccc(NCCCCNc4ccc5nc6ccc(OC)cc6c(Cl)c5c4)cc3c(Cl)c2c1 — 5-fold higher, 10 µM
- COc1ccc2nc3cc(NCCCCCCCNc4ccc5nc6ccc(OC)cc6c(N)c5c4)ccc3c(N)c2c1 — 4.5-fold higher, 9 µM
- COc1ccc2nc3ccc(CBr)cc3c(Cl)c2c1 — 3-fold higher, 6 µM
- COc1ccc2nc3ccc(N(CCCCCCCN(c4ccc5nc6ccc(OC)cc6c(N)c5c4)c4ccc5nc6ccc(OC)cc6c(N)c5c4)c4ccc5nc6ccc(OC)cc6c(N)c5c4)cc3c(N)c2c1 — 70-fold higher, 139 µM
- COc1ccc2nc3ccc(COC(=O)c4ccccc4)cc3c(N)c2c1 — 18-fold higher, 35 µM
- COc1ccc2nc3ccc(N(CCCCCN(c4ccc5nc6ccc(OC)cc6c(N)c5c4)c4ccc5nc6ccc(OC)cc6c(N)c5c4)c4ccc5nc6ccc(OC)cc6c(N)c5c4)cc3c(N)c2c1 — the same, 2 µM
- COc1ccc2nc3ccc(C)cc3c(N)c2c1 — 2-fold lower, 1 µM
- COC(=O)OCc1ccc2nc3ccc(OC)cc3c(N)c2c1 — 2-fold lower, 1 µM
- COc1ccc2nc3ccc(COC(=O)c4ccc(F)cc4)cc3c(N)c2c1 — 2-fold lower, 1 µM
- COc1ccc2nc3ccc(CO)cc3c(Cl)c2c1 — 92-fold higher, 183 µM
- COc1ccc2nc3ccc(N(CCCCCCCN(c4ccc5nc6ccc(OC)cc6c(Cl)c5c4)c4ccc5nc6ccc(OC)cc6c(Cl)c5c4)c4ccc5nc6ccc(OC)cc6c(Cl)c5c4)cc3c(Cl)c2c1 — 2-fold lower, 1 µM
- CCCC(=O)OCc1ccc2nc3ccc(OC)cc3c(N)c2c1 — 1.5-fold higher, 3 µM
- COc1ccc2nc3ccc(NCCCCNc4ccc5nc6ccc(OC)cc6c(N)c5c4)cc3c(N)c2c1 — 2.5-fold higher, 5 µM
- COc1ccc2nc3ccc(COC(=O)CC(C)C)cc3c(Cl)c2c1 — 18-fold higher, 36 µM
- COc1ccc2nc3ccc(CBr)cc3c(N)c2c1 — 2-fold higher, 4 µM

Tested on: Entamoeba histolytica
Test: Antimicrobial activity against Entamoeba histolytica
Format: functional, organism-based

Point of comparison: `O=P(O)(O)C(CNc1ccccn1)P(=O)(O)O`, IC50 200 µM. Against it:
- NCCC(O)(P(=O)(O)O)P(=O)(O)O [PAMIDRONIC ACID] — the same, 200 µM
- NCCCCC(O)(P(=O)(O)O)P(=O)(O)O — the same, 200 µM
- O=P(O)(O)C(NC1CCC1)P(=O)(O)O [(CYCLOBUTYLAMINO)METHYLENEDIPHOSPHONIC ACID] — the same, 200 µM
- O=P(O)(O)C(Nc1ncccc1OCc1ccccc1)P(=O)(O)O — the same, 200 µM
- CCc1cccc(NC(P(=O)(O)O)P(=O)(O)O)c1 — the same, 200 µM
- O=P(O)(O)C(N1CCOCC1)P(=O)(O)O [MORPHOLINOMETHYLENEDIPHOSPHONIC ACID] — the same, 200 µM
- O=P(O)(O)C(Nc1ccc(-c2ccccc2)cc1)P(=O)(O)O — 22-fold lower, 9 µM
- O=P(O)(O)C(Nc1nccc2ccccc12)P(=O)(O)O — the same, 200 µM
- CCCC(O)(P(=O)(O)O)P(=O)(O)O — the same, 200 µM
- CN(CCOc1ccccc1)CCC(O)(P(=O)(O)O)P(=O)(O)O — 33-fold lower, 6 µM
- CCCCCCNC(P(=O)(O)O)P(=O)(O)O [(HEXYLAMINO)METHYLENEDIPHOSPHONIC ACID] — the same, 200 µM
- O=P(O)(O)C(O)(CSc1ccncc1)P(=O)(O)O — the same, 200 µM
- CCn1c2ccccc2c2ccc(NC(P(=O)(O)O)P(=O)(O)O)cc21 — the same, 200 µM
- CCCCC(O)(P(=O)(O)O)P(=O)(O)O — the same, 200 µM
- O=P(O)(O)C(O)(Cc1ccccn1)P(=O)(O)O — the same, 200 µM

Tested on: Plasmodium falciparum
Test: Antimicrobial activity against Plasmodium falciparum
Format: functional, organism-based

Point of comparison: `COc1ccc2[nH]c([S+]([O-])Cc3ncc(C)c(OC)c3C)nc2c1` (stereo unspecified) [OMEPRAZOLE], IC50 76 µM. Against it:
- NCCC(O)(P(=O)(O)O)P(=O)(O)O [PAMIDRONIC ACID] — 2.6-fold higher, 200 µM
- NCCCCC(O)(P(=O)(O)O)P(=O)(O)O — 2.6-fold higher, 200 µM
- O=P(O)(O)C(NC1CCC1)P(=O)(O)O [(CYCLOBUTYLAMINO)METHYLENEDIPHOSPHONIC ACID] — 2.6-fold higher, 200 µM
- O=P(O)(O)C(Nc1ncccc1OCc1ccccc1)P(=O)(O)O — 2.6-fold higher, 200 µM
- CCc1cccc(NC(P(=O)(O)O)P(=O)(O)O)c1 — 2.6-fold higher, 200 µM
- COc1cc(NC(C)CCCN)c2ncccc2c1 (stereo unspecified) [PRIMAQUINE] — within 1.5-fold, 105 µM
- C[C@H]1[C@H](OC(=O)CCC(=O)O)O[C@@H]2O[C@@]3(C)CC[C@H]4[C@H](C)CC[C@@H]1[C@@]24OO3 [ARTESUNATE] — 25-fold lower, 3 µM
- CCCCCCC1(C)N=C(N)N=C(N)N1c1cccc(Cl)c1 (stereo unspecified) — 25-fold lower, 3 µM
- CC1=C(O)[C@@](C)(Cc2cccc(C(=O)c3ccccc3)c2)SC1=O [THIOLACTOMYCIN 8] — 4.8-fold lower, 16 µM
- CN(C)c1ccc(Nc2c3ccccc3nc3cc(Cl)ccc23)cc1 — 76-fold lower, 1 µM
- CCN(CC)Cc1cc(Nc2ccnc3cc(Cl)ccc23)cc(-c2ccc(Cl)cc2)c1 [DEHYDROXY TEBAQUINE] — within 1.5-fold, 51 µM
- CCN(CC)Cc1cc(Nc2ccnc3cc(Cl)ccc23)cc(-c2ccc(Cl)cc2)c1F — 1.9-fold lower, 41 µM
- CCCCOc1ccc(NC(P(=O)(O)O)P(=O)(O)O)cc1 — 2.6-fold higher, 200 µM
- COc1cc(NC(C)CCCN)c2nccc(C)c2c1OCc1cccc(C(F)(F)F)c1 (stereo unspecified) — 38-fold lower, 2 µM
- NC1=NC(c2ccc(Oc3ccccc3)cc2)N(c2cccc(Cl)c2)C(N)=N1 (stereo unspecified) — 25-fold lower, 3 µM
- CC(C)=CC[C@@]1(C)SC(=O)C(C)=C1O [THIOLACTOMYCIN 2] — within 1.5-fold, 100 µM
- CCCCN(CCCC)CCC(O)c1cc2c(Cl)cc(Cl)cc2c2cc(C(F)(F)F)ccc12 (stereo unspecified) [HALOFANTRINE] — 2.4-fold higher, 185 µM
- CC(C)=CCCC(C)CC[C@@]1(C)SC(=O)C(C)=C1O (stereo partly specified) [THIOLACTOMYCIN 5] — within 1.5-fold, 57 µM
- CC[C@H]1OC(=O)[C@H](C)[C@@H](O[C@H]2C[C@@](C)(OC)[C@@H](O)[C@H](C)O2)[C@H](C)[C@@H](O[C@@H]2O[C@H](C)C[C@H](N(C)C)[C@H]2O)[C@](C)(O)C[C@@H](C)C(=O)[C@H](C)[C@@H](O)[C@]1(C)O [ERYTHROMYCIN] — 4.2-fold lower, 18 µM
- Nc1ncc(Cc2ccc(OCc3ccccc3)c(OCc3ccccc3)c2)c(N)n1 — 25-fold lower, 3 µM
- NC1=NC(c2cccc(Oc3cccc(C(F)(F)F)c3)c2)N(c2cccc(Cl)c2)C(N)=N1 (stereo unspecified) — 25-fold lower, 3 µM
- C=C[C@@H]1CN2CC[C@@]3(CNc4cc(O)ccc43)[C@@H]2C[C@@H]1C[C@H]1c2[nH]c3ccccc3c2CCN1C [ISOSTRYCHNOFOLINE] — 13-fold lower, 6 µM
- COc1cc(NC(C)CCCN)c2nccc(C)c2c1OCCCCCc1ccccc1C(F)(F)F (stereo unspecified) — 15-fold lower, 5 µM
- CN(C)C(=O)C1=CC2c3ccccc3C1c1ccccc12 — 2.4-fold lower, 32 µM
- N/C(=N\O)c1ccc(O)c(O)c1 — 3.3-fold lower, 23 µM
- Oc1ccc(Nc2ccnc3cc(Cl)ccc23)cc1CN1CCCC1 [AMOPYROQUINE] — 2.5-fold lower, 30 µM
- COc1cc(NC(C)CCCN)c2nccc(C)c2c1OCCCCCc1ccc(C(F)(F)F)cc1 (stereo unspecified) — 38-fold lower, 2 µM
- C=C[C@H]1CN2CC[C@H]1C[C@H]2[C@H](O)c1ccnc2ccc(OC)cc12 [QUININE] — within 1.5-fold, 54 µM
- COc1cc(NC(C)CCCN)c2nccc(C)c2c1OCCCCc1ccccc1 (stereo unspecified) — 2.3-fold higher, 174 µM
- CN(C)c1ccc(O)c2c1C[C@H]1C[C@H]3[C@H](N(C)C)C(O)=C(C(N)=O)C(=O)[C@@]3(O)C(O)=C1C2=O [MINOCYCLINE] — 25-fold lower, 3 µM
- c1ccc2c(c1)ccc1nc3ccccc3nc12 [BENZO[A]PHENAZINE] — 3.8-fold lower, 20 µM
- O=C1Nc2ccccc2/C1=C\C1CCCCN1 (stereo unspecified) — 3.6-fold lower, 21 µM
- O=P(O)(O)C(Nc1ccc(I)cn1)P(=O)(O)O — 2.6-fold higher, 200 µM
- C=C/C(C)=C/[C@@]1(C)SC(=O)C(C)=C1O [THIOLACTOMYCIN] — 1.6-fold lower, 49 µM
- O=C1Nc2ccccc2/C1=C\c1ccc(Cl)cc1 — 2.1-fold lower, 37 µM
- CCc1nc(N)nc(N)c1-c1ccc(Cl)cc1 [PYRIMETHAMINE] — within 1.5-fold, 100 µM
- COc1cc(/C(N)=N/O)cc(OC)c1OC — 26-fold higher, 2010 µM
- Nc1nc(N)c(-c2cccc(Cl)c2)c(CCCOC(=O)OCc2ccccc2)n1 — 38-fold lower, 2 µM
- Nc1ncc(Cc2ccc(OCc3ccccc3)cc2)c(N)n1 — 3.6-fold lower, 21 µM
- CCN(CC)Cc1cc(Nc2ccnc3cc(Cl)ccc23)ccc1O — 5.1-fold lower, 15 µM
- CC1C2c3ccccc3C(c3ccccc32)C1C(=O)Nc1ccncc1 (stereo unspecified) — 6.6-fold higher, 500 µM
- C[C@H]1c2cccc(O)c2C(=O)C2=C(O)[C@]3(O)C(=O)C(C(N)=O)=C(O)[C@@H](N(C)C)[C@@H]3[C@@H](O)[C@@H]21 [DOXYCYCLINE] — 4.2-fold lower, 18 µM
- Cc1cccc(NC(P(=O)(O)O)P(=O)(O)O)n1 — 2.6-fold higher, 200 µM
- CCCCCCCCCCC(O)(P(=O)(O)O)P(=O)(O)O — 2.6-fold higher, 200 µM
- CCCCCCC(O)(P(=O)(O)O)P(=O)(O)O — 19-fold lower, 4 µM
- NC1=NC(c2cccc(OCc3ccccc3)c2)N(c2cccc(Cl)c2)C(N)=N1 (stereo unspecified) — 9.5-fold lower, 8 µM
- CC(CCCN1CCCC1)Nc1ccnc2cc(Cl)ccc12 (stereo unspecified) [Chloroquine-pyrolidinyl] — 1.7-fold lower, 44 µM
- CN(C)C(=O)C1C2c3ccccc3C(c3ccccc32)C1C(=O)O (stereo unspecified) — 2.1-fold lower, 36 µM
- C/N=C/c1c(O)[nH]c2ccccc12 — within 1.5-fold, 57 µM
- CC(C)NC(=N)NC(=N)Nc1ccc(Cl)cc1 [PROGUANIL] — 2.1-fold lower, 36 µM
- O=C1Nc2ccccc2/C1=C\c1ccc(O)cc1 — 1.8-fold lower, 42 µM
- CC(C)=CCC/C(C)=C/CC1(C)C(=O)S[C@@H](C)C1=O (stereo partly specified) [THIOLACTOMYCIN 11] — 2.5-fold lower, 30 µM
- N#C/C(C(N)=O)=C1/C(=O)Nc2ccccc21 — 3.2-fold lower, 24 µM
- O=P(O)(O)C(NCCCc1ccccc1)P(=O)(O)O — 2.6-fold higher, 200 µM
